pIC50: −log10 of the molar value. One block for each compound: values may come before it.
How the values were obtained:
[1] = biological target: T1, glutamate dehydrogenase (GDH) (Bos taurus, UniProt P00366); assay: GDH kinetics, NAD(P)H formation at […] nm; percent activation (Figure 4B); assay type: biochemical
T1 construct: gene GLUD1

[2] = biological target: T1, glutamate dehydrogenase (GDH); assay: GDH kinetics, NAD(P)H formation at […] nm; fraction of activity with NAD added first; assay type: biochemical
[3] = biological target: T1, glutamate dehydrogenase (GDH); assay: GDH kinetics, NAD(P)H formation at […] nm; percent activation with NADP; assay type: biochemical
[4] = biological target: T1, glutamate dehydrogenase (GDH); assay: GDH kinetics, NAD(P)H formation at […] nm; fraction of activity (Figure 1C); assay type: biochemical
mitoNEET = biological target: T2, mitoNEET (Homo sapiens, UniProt Q9NZ45); assay: radioligand competition assay (SPA nickel beads); assay type: binding
T2 construct: gene CISD1
T2 sequence (Q9NZ45 2-108): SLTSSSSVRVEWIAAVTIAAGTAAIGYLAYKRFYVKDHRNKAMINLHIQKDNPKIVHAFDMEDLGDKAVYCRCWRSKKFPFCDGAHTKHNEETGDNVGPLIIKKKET

[5] = biological target: T1, glutamate dehydrogenase (GDH); assay: GDH kinetics, NAD(P)H formation at […] nm; fraction of activity; assay type: biochemical

T1 sequence (P00366 58-558, one chain of several): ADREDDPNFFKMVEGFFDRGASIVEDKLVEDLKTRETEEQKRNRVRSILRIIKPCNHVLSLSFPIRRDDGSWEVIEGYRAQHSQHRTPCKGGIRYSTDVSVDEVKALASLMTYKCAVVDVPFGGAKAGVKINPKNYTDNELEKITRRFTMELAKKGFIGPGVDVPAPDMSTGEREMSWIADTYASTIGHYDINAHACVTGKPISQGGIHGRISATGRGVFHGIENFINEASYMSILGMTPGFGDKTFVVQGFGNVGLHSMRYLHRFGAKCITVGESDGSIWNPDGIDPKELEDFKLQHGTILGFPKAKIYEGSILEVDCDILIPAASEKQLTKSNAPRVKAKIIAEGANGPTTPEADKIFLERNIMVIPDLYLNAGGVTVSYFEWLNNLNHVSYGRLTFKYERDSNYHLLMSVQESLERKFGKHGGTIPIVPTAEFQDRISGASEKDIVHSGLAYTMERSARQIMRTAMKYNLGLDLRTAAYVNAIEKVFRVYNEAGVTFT

Structure (SMILES): CC(C)C[C@H](N)C(=O)O [leucine]
GDH kinetics, NAD(P)H formation at 340 nm; percent activation (Figure 4B) [1]: addition of mitoNEET after the addition of leucine gave no impact in percent activation over the addition of leucine alone

Structure (SMILES): O=C(O[C@@H]1Cc2c(O)cc(O)cc2O[C@@H]1c1cc(O)c(O)c(O)c1)c1cc(O)c(O)c(O)c1 [EGCG]
GDH kinetics, NAD(P)H formation at 340 nm; fraction of activity with NAD added f [2]: 0.35 ± 0.02 fraction of activity

% activation [3]: 67 % activation
Structure (SMILES): Nc1ncnc2c1ncn2[C@@H]1O[C@H](COP(=O)(O)OP(=O)(O)O)[C@@H](O)[C@H]1O [ADP]

Structure (SMILES): Nc1nc2c(ncn2[C@@H]2O[C@H](COP(=O)(O)OP(=O)(O)OP(=O)(O)O)[C@@H](O)[C@H]2O)c(=O)[nH]1 [GTP]
GDH kinetics, NAD(P)H formation at 340 nm; fraction of activity (Figure 1C) [4]: under only one assay condition the rescue of GDH activity from GTP inhibition by mitoNEET could be observed

pIC50 (mitoNEET): 6.52
GDH kinetics, NAD(P)H formation at 340 nm; fraction of activity [5]: 0.44 ± 0.04 fraction of activity
Structure (SMILES): CCCCCCCCCCCCCCCC(=O)SCCNC(=O)CCNC(=O)[C@H](O)C(C)(C)COP(=O)(O)OP(=O)(O)OC[C@H]1O[C@@H](n2cnc3c(N)ncnc32)[C@H](O)[C@@H]1OP(=O)(O)O [palmitoyl-CoA]

Reference: paper PMC9737137, “The Mitochondrial Protein MitoNEET as a Probe for the Allostery of Glutamate Dehydrogenase” (Molecules, 2022)
